Assays:
Assay type in all cases: in vivo
[1] = tested on: redroot pigweed (Amaranthus retroflexus, AMARE); assay: Pre-emerge test, greenhouse herbicide activity screening; details: rating scale 0-100, 14 days after application
In short: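 Plants grown in 10 cm pots of sandy loam mix received acetone-dissolved compounds through a moving flat-fan nozzle. Doses ranged from 15 to 1000 g ai/ha. Pre-emerge pots were seeded one day earlier, post-emerge pots 8–21 days earlier. Fourteen days on, each pot was graded 0–100 for damage.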

[2] = tested on: ivyleaf morningglory (Ipomoea hederacea, IPOHE); assay: Post-emerge test, greenhouse herbicide activity screening; details: rating scale 0-100 (0 no damage, 100 complete death), 14 days after application
In short: (§1)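 Applied at 15–1000 g ai/ha from acetone in 187 l/ha spray volume. Post-emergence applications included 0.25% v/v non-ionic surfactant and reached plants sown 8–21 days before. Pre-emergence applications were incorporated by surface watering. Efficacy or crop damage was rated on a 0–100 scale after 14 days.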

[3] = tested on: lambsquarters (Chenopodium album, CHEAL); assay: as above; details: rating scale 0-100 (0 no damage, 100 complete death), 14 days after application
In short: as §1

[4] = tested on: redroot pigweed (Amaranthus retroflexus, AMARE); assay: as above; details: rating scale 0-100 (0 no damage, 100 complete death), 14 days after application
In short: as §1

[5] = tested on: barnyardgrass (Echinochloa crus-galli, ECHCG); assay: as above; details: rating scale 0-100 (0 no damage, 100 complete death), 14 days after application
In short: as §1

[6] = tested on: large crabgrass (Digitaria sanguinalis, DIGSA); assay: as above; details: rating scale 0-100 (0 no damage, 100 complete death), 14 days after application
In short: as §1

[7] = tested on: sicklepod (Cassia obtusifolia, CASOB); assay: as above; details: rating scale 0-100 (0 no damage, 100 complete death), 14 days after application
In short: as §1

[8] = tested on: common ragweed (Ambrosia artemisizfolia L., AMBEL); assay: as above; details: rating scale 0-100 (0 no damage, 100 complete death), 14 days after application
In short: as §1

[9] = tested on: green foxtail (Setaria viridis, SETVI); assay: as above; details: rating scale 0-100 (0 no damage, 100 complete death), 14 days after application
In short: as §1

[10] = tested on: johnsongrass (Sorghum halepense, SORHA); assay: as above; details: rating scale 0-100 (0 no damage, 100 complete death), 14 days after application
In short: as §1

[11] = tested on: velvetleaf (Abutilon theophrasti, ABUTH); assay: as above; details: rating scale 0-100 (0 no damage, 100 complete death), 14 days after application
In short: as §1

[12] = tested on: ivyleaf morningglory (Ipomoea hederacea, IPOHE); assay: Pre-emerge test, greenhouse herbicide activity screening; details: rating scale 0-100, 14 days after application
In short: (§2)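 Herbicidal damage is scored 0 (none) to 100 (complete plant death) two weeks after a simulated field spray. Rates span 15–1000 g ai/ha, delivered in acetone at 187 l/ha. For post-emergence treatments, plants have 2–3 leaves and the spray carries 0.25% v/v non-ionic surfactant.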

[13] = tested on: lambsquarters (Chenopodium album, CHEAL); assay: as above; details: rating scale 0-100, 14 days after application
In short: as §2

[14] = tested on: barnyardgrass (Echinochloa crus-galli, ECHCG); assay: as above; details: rating scale 0-100, 14 days after application
In short: as §2

[15] = tested on: large crabgrass (Digitaria sanguinalis, DIGSA); assay: as above; details: rating scale 0-100, 14 days after application
In short: as §2

[16] = tested on: sicklepod (Cassia obtusifolia, CASOB); assay: as above; details: rating scale 0-100, 14 days after application
In short: as §2

[17] = tested on: green foxtail (Setaria viridis, SETVI); assay: as above; details: rating scale 0-100, 14 days after application
In short: as §2

[18] = tested on: johnsongrass (Sorghum halepense, SORHA); assay: as above; details: rating scale 0-100, 14 days after application
In short: as §2

[19] = tested on: velvetleaf (Abutilon theophrasti, ABUTH); assay: as above; details: rating scale 0-100, 14 days after application
In short: as §2

[20] = tested on: field corn (Zea mays L., var. Dekalb 535, CORN); assay: Post-emerge test, crop safety; details: rating scale 0-100 (0 no damage, 100 complete death), 14 days after application
In short: as §2

[21] = tested on: upland rice (Oryza sp., var. Tebonnet, RICE); assay: Post-emerge test, crop safety; details: rating scale 0-100 (0 no damage, 100 complete death), 14 days after application
In short: as §2

[22] = tested on: field corn (Zea mays L., var. Dekalb 535, CORN); assay: Pre-emerge test, crop safety; details: rating scale 0-100, 14 days after application
In short: (§3)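 Sandy loam pots; pre-emerge: sown 1 d pre-spray, surface-watered after, then bottom-watered. Post-emerge: sown 8–21 d before, 2–3 leaf stage, + 0.25% v/v NIS, bottom-watered. Acetone, 187 l/ha track spray, 15–1000 g ai/ha. 0–100 injury score, day 14.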

[23] = tested on: upland rice (Oryza sp., var. Tebonnet, RICE); assay: Pre-emerge test, crop safety; details: rating scale 0-100, 14 days after application
In short: as §3

COc1c(Cl)cc(F)c(-n2c(=O)cc(C(F)(F)F)n(C)c2=O)c1CC(Cl)C(=O)OCC(F)(F)C(F)F (stereo not shown) [14-22]
Pre-emerge herbicidal activity, phytotoxicity rating AMARE ([1]; 63 g ai/ha): 100
Pre-emerge herbicidal activity, phytotoxicity rating AMARE ([1]; 250 g ai/ha): 100
Post-emerge Herbicidal Activity, phytotoxicity rating IPOHE ([2]; Rate 63 g ai/ha): 10
Post-emerge Herbicidal Activity, phytotoxicity rating IPOHE ([2]; Rate 250 g ai/ha): 80
Post-emerge Herbicidal Activity, phytotoxicity rating CHEAL ([3]; Rate 63 g ai/ha): 50
Post-emerge Herbicidal Activity, phytotoxicity rating CHEAL ([3]; Rate 250 g ai/ha): 90
Post-emerge Herbicidal Activity, phytotoxicity rating AMARE ([4]; Rate 63 g ai/ha): 50
Post-emerge Herbicidal Activity, phytotoxicity rating AMARE ([4]; Rate 250 g ai/ha): 100
Post-emerge Herbicidal Activity, phytotoxicity rating ECHCG ([5]; Rate 63 g ai/ha): 100
Post-emerge Herbicidal Activity, phytotoxicity rating ECHCG ([5]; Rate 250 g ai/ha): 100
Post-emerge Herbicidal Activity, phytotoxicity rating DIGSA ([6]; Rate 63 g ai/ha): 80
Post-emerge Herbicidal Activity, phytotoxicity rating DIGSA ([6]; Rate 250 g ai/ha): 95
Post-emerge Herbicidal Activity, phytotoxicity rating CASOB ([7]; Rate 63 g ai/ha): 0
Post-emerge Herbicidal Activity, phytotoxicity rating CASOB ([7]; Rate 250 g ai/ha): 50
Post-emerge Herbicidal Activity, phytotoxicity rating AMBEL ([8]; Rate 63 g ai/ha): 100
Post-emerge Herbicidal Activity, phytotoxicity rating AMBEL ([8]; Rate 250 g ai/ha): 100
Post-emerge Herbicidal Activity, phytotoxicity rating SETVI ([9]; Rate 63 g ai/ha): 30
Post-emerge Herbicidal Activity, phytotoxicity rating SETVI ([9]; Rate 250 g ai/ha): 60
Post-emerge Herbicidal Activity, phytotoxicity rating SORHA ([10]; Rate 63 g ai/ha): 40
Post-emerge Herbicidal Activity, phytotoxicity rating SORHA ([10]; Rate 250 g ai/ha): 60
Post-emerge Herbicidal Activity, phytotoxicity rating ABUTH ([11]; Rate 63 g ai/ha): 30
Post-emerge Herbicidal Activity, phytotoxicity rating ABUTH ([11]; Rate 250 g ai/ha): 100
Pre-emerge herbicidal activity, phytotoxicity rating IPOHE ([12]; 63 g ai/ha): 0
Pre-emerge herbicidal activity, phytotoxicity rating IPOHE ([12]; 250 g ai/ha): 0
Pre-emerge herbicidal activity, phytotoxicity rating CHEAL ([13]; 63 g ai/ha): 20
Pre-emerge herbicidal activity, phytotoxicity rating CHEAL ([13]; 250 g ai/ha): 90
Pre-emerge herbicidal activity, phytotoxicity rating ECHCG ([14]; 63 g ai/ha): 0
Pre-emerge herbicidal activity, phytotoxicity rating ECHCG ([14]; 250 g ai/ha): 0
Pre-emerge herbicidal activity, phytotoxicity rating DIGSA ([15]; 63 g ai/ha): 0
Pre-emerge herbicidal activity, phytotoxicity rating DIGSA ([15]; 250 g ai/ha): 50
Pre-emerge herbicidal activity, phytotoxicity rating CASOB ([16]; 63 g ai/ha): 0
Pre-emerge herbicidal activity, phytotoxicity rating CASOB ([16]; 250 g ai/ha): 0
Pre-emerge herbicidal activity, phytotoxicity rating SETVI ([17]; 63 g ai/ha): 0
Pre-emerge herbicidal activity, phytotoxicity rating SETVI ([17]; 250 g ai/ha): 0
Pre-emerge herbicidal activity, phytotoxicity rating SORHA ([18]; 63 g ai/ha): 0
Pre-emerge herbicidal activity, phytotoxicity rating SORHA ([18]; 250 g ai/ha): 0
Pre-emerge herbicidal activity, phytotoxicity rating ABUTH ([19]; 63 g ai/ha): 0
Pre-emerge herbicidal activity, phytotoxicity rating ABUTH ([19]; 250 g ai/ha): 70
Post-emerge phytotoxicity rating CORN (crop damage) ([20]; Rate 63 g ai/ha): 10
Post-emerge phytotoxicity rating CORN (crop damage) ([20]; Rate 250 g ai/ha): 50
Post-emerge phytotoxicity rating RICE (crop damage) ([21]; Rate 63 g ai/ha): 0
Post-emerge phytotoxicity rating RICE (crop damage) ([21]; Rate 250 g ai/ha): 10
Pre-emerge phytotoxicity rating, crop damage CORN ([22]; 63 g ai/ha): 0
Pre-emerge phytotoxicity rating, crop damage CORN ([22]; 250 g ai/ha): 0
Pre-emerge phytotoxicity rating, crop damage RICE ([23]; 63 g ai/ha): 0
Pre-emerge phytotoxicity rating, crop damage RICE ([23]; 250 g ai/ha): 10

Source: patent publication US6355799B1, “Substituted benzene compounds, process for their preparation, and herbicidal and defoliant compositions containing them” (ISK Americas Incorporated, priority 1997, dated 2002)
